According to US11298363B2, “Triazolobenzazepines as vasopressin V1a receptor antagonists” (RICHTER GEDEON NYRT., priority 2017, dated 2022):

Columns and labels:
[1] = target: T1, human vasopressin V1a receptor (Homo sapiens, UniProt P37288); assay: Functional assay on human vasopressin V1a receptor expressing cell line (intracellular Ca2+ fluorescence); format: cell-based; conditions: 1321N1 cells, (Arg8)-vasopressin at EC80; read-out: IC50 (nM) on hV1a cell line
[2] = target: T1, human vasopressin V1a receptor; assay: Human vasopressin V1a receptor binding assay; conditions: 1321N1 cell membranes, [3H]vasopressin; read-out: Ki (nM) on hV1a cell line
In short: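 Ki values come from IC50 via Cheng-Prusoff (KD from prior Scatchard), averaged over at least two independent runs. Human V1a membranes were incubated with radioligand 60 minutes at 27° C., bound ligand collected by filtration; (Arg^8)-vasopressin at 1.2×10^−6 M defined non-specific binding.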

T1 sequence (P37288 whole entry): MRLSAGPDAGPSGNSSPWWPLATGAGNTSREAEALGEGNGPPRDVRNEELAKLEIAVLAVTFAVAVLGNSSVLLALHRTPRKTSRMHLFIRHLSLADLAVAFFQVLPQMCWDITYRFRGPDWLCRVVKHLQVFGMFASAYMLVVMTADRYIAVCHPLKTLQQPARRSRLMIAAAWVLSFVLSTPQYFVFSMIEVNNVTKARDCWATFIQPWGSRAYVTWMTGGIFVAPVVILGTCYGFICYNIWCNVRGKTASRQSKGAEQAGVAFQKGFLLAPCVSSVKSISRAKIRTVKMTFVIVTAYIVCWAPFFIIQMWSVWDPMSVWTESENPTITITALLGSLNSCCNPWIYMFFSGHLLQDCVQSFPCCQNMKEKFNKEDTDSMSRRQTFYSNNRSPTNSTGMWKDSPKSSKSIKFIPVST

Structure (SMILES) | IC50 [1] | Ki [2]
CCO[C@]1(C)CC[C@@H](c2nnc3n2-c2ccc(Cl)cc2CC2(C3)OCCO2)CC1 [Example 237, 8′-chloro-1′-(trans-4-ethoxy-4-methylcyclohexyl)-4′H,6′H-spiro[1,3-dioxolane-2,5-[1,2,4]triazolo[4,3-a][1]benzazepine]] | 1.5 nM | 0.2 nM
CCC[C@]1(OCC)CC[C@H](c2nnc3n2-c2ccc(Cl)cc2CC2(C3)OCCO2)CC1 [Example 238, 8′-chloro-1′-(trans-4-ethoxy-4-propylcyclohexyl)-4′H,6′-spiro[1,3-dioxolane-2,5′-[1,2,4]triazolo[4,3-a][1]benzazepine]] | 8.2 nM | 0.7 nM
Clc1ccc2c(c1)CC1(Cc3nnc(C4CCN(Cc5ccccn5)C4)n3-2)OCCO1 (stereo not drawn) [Example 239, 8′-chloro-1′-[1-(pyridin-2-ylmethyl)pyrrolidin-3-yl]-4′H,6′H-spiro[1,3-dioxolane-2,5′-[1,2,4]triazolo[4,3-a][1]benzazepine]] | 5.6 nM | 1.2 nM
CC[C@]1(OC)CC[C@@H](c2nnc3n2-c2ccc(Cl)cc2CC2(C3)OCCO2)CC1 [Example 240, 8′-chloro-1′-(cis-4-ethyl-4-methoxycyclohexyl)-4′H,6′H-spiro[1,3-dioxolane-2,5′-[1,2,4]triazolo[4,3-a][1]benzazepine]] | 3.1 nM | 0.5 nM
CC[C@]1(OC)CC[C@H](c2nnc3n2-c2ccc(Cl)cc2CC2(C3)OCCO2)CC1 [Example 241, 8′-chloro-1′-(trans-4-ethyl-4-methoxycyclohexyl)-4′H,6′H-spiro[1,3-dioxolane-2,5′-[1,2,4]triazolo[4,3-a][1]benzazepine]] | 2.6 nM | 0.4 nM
CCC[C@]1(OC)CC[C@H](c2nnc3n2-c2ccc(Cl)cc2CC2(C3)OCCO2)CC1 [Example 242, 8′-chloro-1′-(trans-4-methoxy-4-propylcyclohexyl)-4′H,6′H-spiro[1,3-dioxolane-2,5′-[1,2,4]triazolo 4,3a][1]benzoepin] | 1.8 nM | 0.5 nM
CCC[C@]1(OC)CC[C@@H](c2nnc3n2-c2ccc(Cl)cc2CC2(C3)OCCO2)CC1 [Example 243, 8′-chloro-1′-(cis-4-methoxy-4-propylcyclohexyl)-4′H,6′H-spiro[1,3-dioxolane-2,5-[1,2,4]triazolo[4,3-a][1]benzazepine]] | 2.8 nM | 0.4 nM
CCO[C@]1(CC)CC[C@@H](c2nnc3n2-c2ccc(Cl)cc2CC(NC(C)C)C3)CC1 (stereo partly drawn) [Example 244, 8-chloro-1-(trans-4-ethoxy-4-ethylcyclohexyl)-N-(propan-2-yl)-5,6-dihydro-4H-[1,2,4]triazolo[4,3-a][1]benzazepin-5-amine] | 263 nM | 25 nM
CCO[C@]1(CC)CC[C@@H](c2nnc3n2-c2ccc(Cl)cc2CC(N(C)C)C3)CC1 (stereo partly drawn) [Example 245, 8-chloro-1-(trans-4-ethoxy-4-ethylcyclohexyl)-N,N-dimethyl-5,6-dihydro-4H-[1,2,4]triazolo[4,3-a][1]benzazepin-5-amine] | 130 nM | 7 nM
Clc1ccc2c(c1)CC1(Cc3nnc([C@@H]4CCN(Cc5ccccn5)C4)n3-2)OCCO1 [Example 246, 8′-chloro-1′-[(3R)-1-(pyridin-2-ylmethyl)pyrrolidin-3-yl]-4′H,6′H-spiro[1,3-dioxolane-2,5′-[1,2,4]triazolo[4,3-a][1]benzazepine]] | 3.4 nM | 0.5 nM
COC1Cc2cc(Cl)ccc2-n2c(nnc2[C@@H]2CCN(Cc3cccnc3)C2)C1 (stereo partly drawn) [Example 247] | 30 nM | 5 nM
COC1Cc2cc(Cl)ccc2-n2c(nnc2[C@@H]2CCN(Cc3ccccn3)C2)C1 (stereo partly drawn) [Example 248, 8-chloro-5-methoxy-1-[(3R)-1-(pyridin-2-ylmethyl)pyrrolidin-3-yl]-5,6-dihydro-4H-[1,2,4]triazolo[4,3-a][1]benzazepine] | 22 nM | 2.3 nM
